Data as given in publication PMC10587159, “Biosynthesis and engineering of the nonribosomal peptides with a C-terminal putrescine” (Nature Communications, 2023).
Where two headings read alike, the source gives them in different places. Non-standard residues stand in square brackets, D forms with d. Residues, ends and D or L forms follow the SMILES beside them. *: point of attachment. dMet(O) = CS(=O)CC[C@@H](N)C(=O)O; Lauroyl = CCCCCCCCCCCC(=O)*; Octanoyl = CCCCCCCC(=O)*; NH(CH2)4NH2 = NCCCCN*

Key:
[1] = tested on: human lung adenocarcinoma cell A549; assay: MTT cytotoxicity assay, A549; format: cell-based
From the text: (§1) The two human acute lymphoblastic leukemia cells K562 and Kasumi, two human breast adenocarcinoma cells MCF7 and MDA-MB-231, human hepatoma cell HepG-2, human lung adenocarcinoma cell A549, human gastric cancer cell SGC-7901, human colon cancer cell HCT-116, human ovarian cancer cell line SKOV3, or human lung epithelial normal cell 2B were obtained from Beyotime Biotechnology and utilized to test the cytotoxicity of compounds by MTT assays as previous study. The anti-inflammatory effect of the compounds was detected by the influence on the increase in the level of nitric oxide caused by lipopolysaccharide (LPS) based on the classic Griess method. RAW 264.7 cells (Shanghai Institutes for Biological Science) were seeded in 96-well plates and incubated for 24 h. Then, cells were treated with compounds 29, 29a, 31, and 31a (0-80 μM) for 30 min, followed by co-treatment with LPS ([…]) for another 24 h. The Nitric Oxide assay kit with Griess reagents (Beyotime, Lot: S0021, Shanghai, China) was used to examine cellular supernatant nitrite accumulation, which represents cellular NO levels. The OD value of 540 nm absorbance was detected with a microplate reader. Their authentication in the laboratory was performed regularly based on morphology and gene/protein expression. The tested micro-organisms including Gram-negative bacteria E. coli ATCC 35218 and Pseudomonas aeruginosa ATCC 27853, and Gram-positive bacteria Staphylococcus aureus ATCC 29213 and B. subtilis ATCC 6633, and fungi Candida albicans, Rhizoctonia solani and Aspergillus fumigatus were treated with different concentrations of compounds (1 μM, 10 μM, 100 μM) using Bauer-Kirby disk diffusion method to evaluate the antimicrobial activities.

[2] = tested on: human breast adenocarcinoma cells MDA-MB-231; assay: cells; format: cell-based
From the text: as §1

[3] = tested on: human hepatoma cell HepG-2; assay: cells; format: cell-based
From the text: as §1

[4] = tested on: human lung epithelial normal cell 2B; assay: cells; format: cell-based
From the text: as §1

[5] = tested on: S. brevitalea DSM 7029 wild type; assay: Biofilm formation of DSM 7029 wild type with compounds (crystal violet); format: cell-based, Schlegelella brevitalea DSM 7029; conditions: relative to wild type treated with H2O = 100%; crystal violet 0.1%, OD600; mean of n = 3
Procedure: The growth curve was tested by Bioscreen C (Labsystems, Finland) as follow. Overnight culture was inoculated into 400 μL fresh CYMG medium in the ratio of 1:100 (the concentration of compounds was 0.1 μg/μL) and shook in normal speed. The OD600 value was gained in every hour for 42 h in total. Biofilm formation was measured at 18 h and 36 h respectively, as reported previously. In brief, the free-floating cells were removed, and the microtitre plate was washed with PBS (pH 7.4) after incubation for 18 h and 36 h. The biofilm was stained by adding 200 µL of crystal violet (0.1%) solution. Crystal violet solution was removed after 15 min and 200 µL of ethanol (95%) was added. The absorbance at OD600 was read using a microplate reader (Infinite M200, Tecan, Männedorf, Switzerland). Meanwhile, free-floating cells were used to test the secretion of pigment. The bacteria were removed and the supernatant was measured at OD600.

[6] = tested on: PvdQ-like acylase GdnD; assay: Deacylation by acylase GdnD (cell lysate, LC-MS); format: biochemical, Schlegelella brevitalea DSM 7029; conditions: 100 μL E. coli cell lysate with GdnD, 5 μL 10 mM substrate, 30 °C; 7 and 8: 4 h, 16 h, 27 h; other substrates 16 h; boiled lysate as control
Procedure: The hydrolysis function of PvdQ-like acylase GdnD was tested. GdnD is predicted to be a periplasmic protein by PSORTb[13]. The collected pellet from 50 mL LB dissolved with 8 mL buffer C (50 mM Tris, 300 mM NaCl, 5 mM MgCl2, pH 7.6), and lysed by cell disruption. Then, one hundred microliter of the cell lysate was incubated with 5 μL 10 mM substrates 7 and 8 for 4 h, 16 h, and 27 h at 30 °C. The negative control was boiled cell lysate. The other substrates (13, 14, 15, 16, and 17) incubated with the cell lysate dealt for 16 h at 30 °C. Then, the reaction was stopped by the addition of the 100 μL MeOH, and the final mixture was checked by LC‒MS analysis (5%‒95% ACN in 15 min) according to the above condition.

[7] = tested on: C13 domain of GdnB fragments and mutants; assay: Condensation of T12-linked L-Ala with Put or other diamines (yield of 24a-27a, LC-MS); format: biochemical, Schlegelella brevitalea DSM 7029; conditions: Average of n = 3
Procedure: In vitro assays for the different enzymes of the C-terminal multi-domains were performed. Reaction buffer contained 80 μM protein, 3 μM Sfp from B. subtilis, 200 μM CoA, 2.5 mM L-Ala and 5 mM ATP was incubated at 30 °C for 30 min. Then, 2.5 mM diamines or polyamines (i.e. putrescine, 1,7-diaminoheptane, 1,6-diaminohexane, 1,5-diaminopentane, 1,2-diaminocyclohexane, spermine, and spermidine, respectively) was added to make final volume of 200 μL. The reaction was further incubated at 30 °C for 1 h or 4 h. Triple amount of cold methanol was added to quench the reaction, and the supernatant was dried by SpeedVac after removed the precipitate at 10,000 × g for 8 min. The reaction mixture was dissolved with 200 μL ddH2O, and then the mixture was derived with D-FDAA according to the procedure of the above Marfey’s analysis. The final reaction mixture was suspended using 100 μL 2 M HCl, which subsequently was dried by SpeedVac. Finally, the mixture dissolved with 100 μL MeOH to detect the target products (24a, 25a, 26a, and 27a) using LC‒MS analysis (5%‒95% ACN in 15 min).

[8] = tested on: human ovarian cancer cell line SKOV3; assay: cells; format: cell-based
From the text: as §1

[9] = tested on: tumor lines; assay: MTT cytotoxicity assay, statements on the whole panel; format: cell-based, human
From the text: as §1

[10] = tested on: human cells Kasumi; assay: MTT cytotoxicity assay, Kasumi; format: cell-based; conditions: Homo sapiens; MTT assay; Supplementary Table 11; read-out: IC50 Kasumi
From the text: as §1

[11] = tested on: human acute lymphoblastic leukemia cells K562; assay: cells; format: cell-based; conditions: Homo sapiens, K562; MTT assay; Supplementary Table 11; read-out: IC50 K562
From the text: as §1

[12] = tested on: human breast adenocarcinoma cells MCF7; assay: cells; format: cell-based; conditions: Homo sapiens, MCF7; MTT assay; Supplementary Table 11; read-out: IC50 MCF-7
From the text: as §1

[13] = tested on: human colon cancer cell HCT-116; assay: cells; format: cell-based; conditions: Homo sapiens, HCT-116; MTT assay; Supplementary Table 11; read-out: IC50 HCT116
From the text: as §1

[14] = tested on: human gastric cancer cell SGC-7901; assay: cells; format: cell-based; conditions: Homo sapiens, SGC-7901; MTT assay; Supplementary Table 11; read-out: IC50 SGC-7901
From the text: as §1

CCCCCCCCCCCC(=O)N[C@H](CC[S+](C)[O-])C(=O)N[C@H](CC(N)=O)C(=O)N1CCC[C@H]1C(=O)N[C@H](C(=O)N[C@H](Cc1ccccc1)C(=O)N1CCC[C@H]1C(=O)N[C@@H](Cc1c[nH]c2ccccc12)C(=O)N[C@@H](C(=O)N[C@@H](C)C(=O)N[C@H](C)C(=O)N[C@@H](CO)C(=O)N[C@@H](C)C(=O)NCCCCN)C(C)C)C(C)C (stereo partly shown) [Compound 8, Glidonin H] (Lauroyl-[dMet(O)][dN]PV[dF]PW[dV]A[dA]SA-{NH(CH2)4NH2})
IC50 ([1]; 24 h): > 20 µM | IC50 ([2]; 24 h): > 20 µM | IC50 ([3]; 24 h): > 20 µM | IC50 ([4]; 24 h): > 20 µM | biofilm formation 18 h, Average [5]: 153.143% | biofilm formation 36 h, Average [5]: 147.847% | deacylation by GdnD, nonacylated product by LC-MS [6]: nonacylated products 1 and 2 were detected

CC(N)C(=O)NCCCCCCCNc1cc(NC(C)C(N)=O)c([N+](=O)[O-])cc1[N+](=O)[O-] (stereo not shown) [Compound 27a]
L-Ala condensing with Put, 1,5-diaminopentane, 1,6-diaminohexane, and 1,7-diaminoheptane (Relative Yield of product) ([7]; protein A12T12): 100 | L-Ala condensing with Put, 1,5-diaminopentane, 1,6-diaminohexane, and 1,7-diaminoheptane (Relative Yield of product) ([7]; protein A12T12C13A*T13): 248.895

CCCCCCCC(=O)N[C@@H](CC(C)C)C(=O)N[C@H](C(=O)N[C@@H](Cc1ccc(O)cc1)C(=O)N[C@H](C)C(=O)N[C@@H](C)C(=O)N[C@H](C)C(=O)N[C@H](C(=O)NCCCCN)C(C)C)[C@@H](C)O [Compound 29] (Octanoyl-LTY[dA]A[dA]V-{NH(CH2)4NH2})
IC50 ([1]; 24 h): 39.92 ± 0.15 µM | IC50 ([2]; 24 h): 110 ± 2.6 µM | IC50 ([3]; 24 h): 265.5 ± 2.43 µM | IC50 ([4]; 24 h): 102.4 ± 0.25 µM | IC50 ([8]; 24 h): 81.4 ± 1.02 µM | cytotoxic / antitumor activity in words [9]: higher anti-inflammatory and antitumor activities than 29a and 31a | IC50 ([9]; 24 h): > 40 µM

CCCCCCCC(=O)N[C@@H](CC(C)C)C(=O)N[C@H](C(=O)N[C@@H](Cc1ccc(O)cc1)C(=O)N[C@H](C)C(=O)N[C@@H](C)C(=O)N[C@H](C)C(=O)N[C@H](C(=O)O)C(C)C)[C@@H](C)O [Compound 29a, octanoyl-L-Leu-L-Thr-L-Tyr-D-Ala-L-Ala-D-Ala-L-Val] (Octanoyl-LTY[dA]A[dA]V-OH)
IC50 ([1]; 24 h): 82.2 ± 2.58 µM | IC50 ([3]; 24 h): 267.5 ± 0.01 µM | IC50 ([4]; 24 h): 269.4 ± 1.23 µM | IC50 ([8]; 24 h): 161 ± 3.67 µM

CCCCCCCC(=O)N[C@H](C(=O)N[C@@H](Cc1ccccc1)C(=O)N[C@@H](CCC(=O)O)C(=O)N[C@H](C(=O)N[C@@H](C)C(=O)O)[C@@H](C)CC)C(C)C [Compound 31a] (Octanoyl-VFEIA-OH; C-terminus assumed)
IC50 ([1]; 24 h): 453.4 ± 0.68 µM | IC50 ([2]; 24 h): 200.5 ± 0.07 µM | IC50 ([3]; 24 h): 94.29 ± 0.19 µM | IC50 ([4]; 24 h): 92.26 ± 0.03 µM | IC50 SKOV3 ([8]; MTT assay, Supplementary Table 12, n.s. indicates negative significance): n.s.

COc1cccc2c1C(=O)c1c(O)c3c(c(O)c1C2=O)C[C@@](O)(C(=O)CO)C[C@@H]3O[C@H]1C[C@H](N)[C@H](O)[C@H](C)O1 [doxorubicin, reference compound]
IC50 [10]: 0.42 ± 0.1 µM | IC50 ([1]; Homo sapiens, A549, MTT assay, Supplementary Table 11, read-out: IC50 A549): 0.82 ± 0.25 µM | IC50 ([1]; Homo sapiens, A549, MTT assay, Supplementary Table 12, read-out: IC50 A549): 0.73 ± 0.05 µM | IC50 [11]: 0.79 ± 0.34 µM | IC50 [12]: 2.6 ± 0.34 µM | IC50 ([2]; Homo sapiens, MDA-MB-231, MTT assay, Supplementary Table 11, read-out: IC50 MDA-MB-231): 0.63 ± 0.07 µM | IC50 ([2]; Homo sapiens, MDA-MB-231, MTT assay, Supplementary Table 12, n.s. indicates negative significance, read-out: IC50 MDA-MB-231): 0.91 ± 0.05 µM | IC50 [13]: 0.59 ± 0.04 µM | IC50 [14]: 0.14 µM | IC50 ([3]; Homo sapiens, HepG2, MTT assay, Supplementary Table 11, read-out: IC50 HepG2): 3.21 ± 0.67 µM | IC50 ([3]; Homo sapiens, HepG2, MTT assay, Supplementary Table 12, read-out: IC50 HepG-2): 0.23 ± 0.02 µM | IC50 ([4]; Homo sapiens, MTT assay, normal cell, Supplementary Table 11, read-out: IC50 2B): 1.32 ± 0.11 µM | IC50 ([4]; Homo sapiens, MTT assay, normal cell, Supplementary Table 12, read-out: IC50 2B): 1.34 ± 0.09 µM | IC50 ([8]; Homo sapiens, SK-OV-3, MTT assay, Supplementary Table 12, n.s. indicates negative significance, read-out: IC50 SKOV3): 1.29 ± 0.01 µM

C14-Rhizomide A [Compound 17, reference compound]
deacylation by GdnD, nonacylated product by LC-MS [6]: could remove myristoyl
